The source of these data is paper PMC6413923 (Journal of medicinal chemistry, 2017).

Like-named read-outs stand apart in the source and are kept apart here.

One data set can be described thus: CD thermal transition. The class given is physicochemical. The conditions noted are these: 25 °C, from thermal transition at 225 nm.
Data set [1] deals with wild-type mice subjected to CLP. Particulars: cited from earlier work.
The subject of data set [2] is lung myeloperoxidase (MPO). Particulars: cited from earlier work.
For the next data set, the system named is cytokines and chemokines. The conditions noted are these: cited from earlier work.
For data set [3] the following is noted: first generation THPI; cited from earlier work.
The next data set relates to collagenolytic MMPs. The conditions noted are these: in words, cited from earlier work.
In a further data set the target is MMP-9 (Homo sapiens, UniProt P14780). Particulars: cited from earlier work; for Ki: read-out: Ki(app) MMP-9.
Chain of MMP-9 (P14780 107-444 limits assumed): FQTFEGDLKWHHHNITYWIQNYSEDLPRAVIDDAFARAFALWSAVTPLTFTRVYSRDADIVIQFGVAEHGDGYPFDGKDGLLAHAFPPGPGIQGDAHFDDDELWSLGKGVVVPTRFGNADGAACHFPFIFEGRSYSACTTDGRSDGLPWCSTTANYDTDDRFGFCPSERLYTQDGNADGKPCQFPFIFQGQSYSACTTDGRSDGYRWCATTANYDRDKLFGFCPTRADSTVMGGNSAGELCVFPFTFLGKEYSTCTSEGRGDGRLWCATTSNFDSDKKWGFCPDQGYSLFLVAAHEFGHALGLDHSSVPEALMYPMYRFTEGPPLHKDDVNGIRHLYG
Another data set addresses MT1-MMP (Homo sapiens, UniProt P50281). The conditions noted are these: cited from earlier work.
A further data set deals with MMP-2 (Homo sapiens, UniProt P08253). Particulars: cited from earlier work; for Ki: read-out: Ki(app) MMP-2.
Chain of MMP-2 (P08253 110-465 limits assumed): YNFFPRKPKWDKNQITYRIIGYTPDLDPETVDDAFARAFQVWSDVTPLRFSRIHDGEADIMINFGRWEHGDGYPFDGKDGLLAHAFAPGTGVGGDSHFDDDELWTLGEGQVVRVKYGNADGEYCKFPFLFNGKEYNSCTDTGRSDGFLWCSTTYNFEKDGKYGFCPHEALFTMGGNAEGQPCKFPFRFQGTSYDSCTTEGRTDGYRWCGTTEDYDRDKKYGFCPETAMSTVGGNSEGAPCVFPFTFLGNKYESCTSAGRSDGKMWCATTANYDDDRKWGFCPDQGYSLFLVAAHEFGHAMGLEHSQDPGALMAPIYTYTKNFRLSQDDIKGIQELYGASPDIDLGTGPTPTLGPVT
For another data set, the target named is T1, MMP-1 (Homo sapiens, UniProt P03956).
T1 sequence (P03956 100-469): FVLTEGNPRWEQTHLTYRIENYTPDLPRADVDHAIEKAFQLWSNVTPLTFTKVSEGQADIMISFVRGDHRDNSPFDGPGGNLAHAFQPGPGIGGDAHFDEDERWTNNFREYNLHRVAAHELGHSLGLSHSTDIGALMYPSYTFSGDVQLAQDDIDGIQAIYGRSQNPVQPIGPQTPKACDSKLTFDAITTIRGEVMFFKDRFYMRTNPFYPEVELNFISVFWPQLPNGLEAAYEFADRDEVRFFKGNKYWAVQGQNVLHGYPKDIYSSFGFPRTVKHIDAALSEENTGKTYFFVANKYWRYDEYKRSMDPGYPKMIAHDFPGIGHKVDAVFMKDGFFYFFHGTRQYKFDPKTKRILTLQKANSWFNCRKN
Particulars: in words; cited from earlier work.

With “(Gly-Pro-Hyp)5-Gly-Arg-Ile-Gly-Phe~Leu-Arg-Thr-Gln-Gly-Val-Arg-(Gly-Pro-Hyp)5-Tyr-NH2 [FLRT]”, the “% folded” value in the data set “CD thermal transition” is recorded as 79%.
As to “(Gly-Pro-Hyp)6-Gly-Pro-Gln-Gly~Val-Gln-His-Gln-Arg-Gly-Val-Arg-(Gly-Pro-Hyp)5-NH2 [VQH]”, in the data set “CD thermal transition”, the “% folded” value is recorded as 87%.
Still for that read-out and setting: next, “(Gly-Pro-Hyp)5-Gly-Arg-Ile-Gly-Phe~Leu-Asp-Pro-Gln-Gly-Val-Arg-(Gly-Pro-Hyp)5-Tyr-NH2 [FLDP]”: 72%; “(Gly-Pro-Hyp)6-Gly-Pro-Gln-Gly~Val-Ser-Trp-Gln-Arg-Gly-Val-Arg-(Gly-Pro-Hyp)5-NH2 [VSW]”: 92%.
With `COc1ccc(S(=O)(=O)N2Cc3ccccc3C[C@@H]2C(=O)NO)cc1` [(3R)-(+) - [2-(4-methoxy-benzenesulfonyl)-1,2,3,4-tetrahydroisoquinoline-3-hydroxamate]], in data set [1], the “survival of CLP mice” value was “improved survival”. In addition, the “whole lung MPO activity in CLP mice” value in [2] is given as “reduced whole lung MPO activity”. In the data set with cytokines and chemokines, the “IL-1β in CLP mice” value is on record as “significantly reduced”, the “IL-6 in CLP mice” value is given as “significantly reduced”, the “MIP-1α in CLP mice” value is reported as “significantly reduced” and the “TNF-α in CLP mice” value was “significantly reduced”.
For “(Gly-Pro-Hyp)6-Gly-Pro-Gln-Gly~Ile-His-Lys-Gln-Arg-Gly-Val-Arg-(Gly-Pro-Hyp)5-NH2 [IHK]”, in “CD thermal transition”, the “% folded” value is recorded as 83%.
As to “C6-(Gly-Pro-Hyp)4-Gly-Pro-Pro-GlyΨ{PO2H-CH2}Val-Val-Gly-Glu-Gln-Gly-Glu-Gln-Gly-Pro-Pro-(Gly-Pro-Hyp)4-NH2 [C6-α1(V)GlyΨ{PO2H-CH2}Val THPI]”, the Tm in [3] is 25 °C. Further, the “inhibition of MMPs” value in the data set with collagenolytic MMPs is “low nanomolar range”. In addition, the “inhibition of full-length (82 kDa) MMP-9 versus TIMP-1 resistant (65 kDa) MMP-9” value at MMP-9 (comparison in words) is listed as “similar”. Moreover, the Ki on MMP-9 (10 °C) is 1.76 ± 0.05 nM; on MMP-9 (37 °C), 1.29 nM; on MMP-2 (10 °C) it was 4.14 ± 0.47 nM; on MMP-2 (37 °C) it was 19.2 ± 0.64 nM. In addition, on MT1-MMP, the “inhibition of MT1-MMP” value is on record as “did not inhibit MT1-MMP”.
Regarding “(Gly-Pro-Hyp)4-Gly-mep-Flp-Gly-Pro-Gln-GlyΨ{PO2H-CH2}Leu-Ala-Gly-Gln-Arg-Gly-Ile-Arg-Gly-mep-Flp-(Gly-Pro-Hyp)4-Tyr-NH2 [α1(I-III)GlyΨ{PO2H-CH2}Leu THPI]”, in the data set with collagenolytic MMPs (first generation), the “selectivity toward collagenolytic MMPs” value is “selective toward collagenolytic MMPs”. Further, the “inhibition of MMPs” value in the data set with collagenolytic MMPs is “low nanomolar range”. Further, on MMP-1, the “inhibition of MMP-1” value is “effectively inhibits”. The “inhibition of MMP-9” value on MMP-9 (in words) is on record as “effectively inhibits”. In addition, the Ki on MT1-MMP (read-out: Ki MT1-MMP) is 120 nM. For the same compound, the “inhibition of MMP-2” value on MMP-2 (in words) is listed as “effectively inhibits”.
In the case of “(Gly-Pro-Hyp)6-Gly-Pro-Gln-Gly~Ile-Tyr-Phe-Gln-Arg-Gly-Val-Arg-(Gly-Pro-Hyp)5-NH2 [IYF]”, the “% folded” value in “CD thermal transition” is given as 88%.
Still for that read-out and setting: next, “(Gly-Pro-Hyp)5-Gly-Arg-Ile-Gly-His~Leu-Arg-Thr-Gln-Gly-Val-Arg-(Gly-Pro-Hyp)5-Tyr-NH2 [HLRT]”: 72%.
